Measurements published in patent publication US20230321043A1, “COMPOUNDS HAVING PSEUDOMONAS ANTI-BIOFILM PROPERTIES” (Københavns Universitet, priority 2020, published 2023).

How the values were obtained:
Enterococcus facieum = test: biofilm formation / dispersal, host range; type: cell-based; details: data not shown
[1] = system: P. aeruginosa ΔwspFΔpelΔpsl; test: growth (OD600) of treated cultures; type: cell-based, Pseudomonas aeruginosa; details: 0 to 100 μM, 24 hours, FIG. 3B
Experimental: (§1) Specifically, a 20 h old culture of P. aeruginosa ΔwspF,Δpsl,Δpel (Rybtke et al 2012) was diluted 100 fold into 25 mL aliquots of ABtrace media supplemented with 0.5% Cas amino acids, 0.2% glucose, 60 μg/mL of gentamicin, 1 μM FeCl3, 0.05% DMSO and either 100 μM H6-335-P1, 100 μM H6-335 or no compound as reference control. Acting as a positive control for low total cellular c-di-GMP content, a 20 hour old culture of strain P. aeruginosa ΔwspF,Δpsl,Δpel carrying plasmid pYhj::Gm (encoding a constitutively expressed YhjH phosphodiesterase) was also diluted 100 fold into 25 mL of ABtrace medium supplemented with 0.5% Cas amino acids, 0.2% glucose, 60 μg/mL of gentamicin, 1 μM FeCl3 and 0.05% DMSO. The 4 cultures were placed on a rotary shaker and following 8 hours of growth at 37° C. and 200 RPM culture samples for c-di-GMP extraction and protein quantification was collected from each of the 4 different cultures. C-di-GMP extracts were prepared and subsequently quantified by HPLC coupled tandem-MS analysis as previously described (Groizeleau et al., 2016), while protein quantification was carried out using the Pierce 660 nm Protein Assay (Thermo Scientific Cat. No 22660) according to the manufacturer's protocol. […]

[2] = system: total cellular c-di-GMP content of P. aeruginosa ΔwspF,Δpsl,Δpel; test: HPLC coupled tandem-MS quantification of c-di-GMP extracts; type: cell-based, Pseudomonas aeruginosa; details: 100 μM, 8 hours of growth; pmol c-di-GMP per mg protein, FIG. 1
Experimental: as §1

[3] = system: c-di-GMP level of P. aeruginosa ΔwspFΔpelΔpsl/pCdrA-gfp; test: microbe, parasite or virus in culture; type: cell-based, Pseudomonas aeruginosa
Experimental: The ΔwspF mutant overproduces c-di-GMP and the ΔpelΔpsl mutations renders the bacteria deficient in exopolysaccharide production, which keeps the growing bacteria in the planktonic mode.
The reduction of total cellular c-di-GMP level was determined as follows. To evaluate the impact of the various compounds on the c-di-GMP level of P. aeruginosa ΔwspFΔpelΔpsl/pCdrA-gfp, 20 hour old cultures of the strain were diluted 100 fold in microtiter plate wells (Nunc) containing […] aliquots of ABTrace medium supplemented with 0.2% glucose, 0.5% casamino acids, 60 μg/ml gentamicin, 1 μM FeCl3, 1% DMSO, and concentrations of compounds as indicated.
Subsequently the microtiter plates were incubated at 37° C. and 440 RPM in a TECAN reader (Infinite F200 PRO), and corresponding values of cell density (OD600) and GFP fluorescence were measured every 20 minutes for 24 hours. The reduction values indicated in the tables are calculated as fluorescence values divided by optical density at a time point where this value reached a plateau.
The resulting microtiter trays were incubated at 37° C. at 440 RPM in a TECAN reader (Infinite F200 PRO), and corresponding values of GFP flourescence (FU) and cell density (OD600) were measured every 20 minutes for 24 hours. […] In FIG. 3A and 3B, means and standard deviations (bars) represents 3 biological replicates (n=3).

[4] = system: P. aeruginosa ΔbifAΔwspFΔpelΔpsl/pCdrA-gfp; test: c-di-GMP monitor read-out in bifA knockout; type: cell-based, Pseudomonas aeruginosa; details: 100 μM, 18 hours of cultivation, FIG. 6B right
Experimental: This experiment was done using a 96 well microtiter format where 20 hour old cultures of the P. aeruginosa ΔwspFΔpelΔpsl/pCdrA-gfp c-di-GMP monitor strain and the P. aeruginosa ΔbifAΔwspFΔpelΔpsl/pCdrA-gfp c-di-GMP monitor strain were diluted 100 fold into 100 μL ABTrace media aliquots supplemented with 0.2% glucose, 0.5% casamino acids, 1 μM FeCl3, 60 μg/mL of gentamicin, 1% DMSO and either 100 μM or 0 μM of H6-335-P1. The resulting microtitter was incubated at 37° C. and 440 RPM in a Tecan reader, and corresponding values of GFP fluorescence (FU) and cell density (OD600) was measured every 20 minutes for 24 hours.

Escherichia coli = test: biofilm formation / dispersal, host range; type: cell-based; details: data not shown
P. aeruginosa biofilms = test: time dependent antibiotic killing of peg biofilms after H6-335-P1 treatment; type: cell-based, Pseudomonas aeruginosa; details: 2 hours 100 μM H6-335-P1, then 30 μg/ml tobramycin or 0.5 μg/ml ciprofloxacin

With N=C1NN=C(N)/C1=N/Nc1ccccc1F [H6-335-P1, 4-[(2-fluorophenyl) hydrazinylidene]pyrazole-3,5-diamine] the “biofilm formation of Enterococcus facieum” value (Enterococcus facieum) was “failed to reduce biofilm formation”, the “effect on growth (OD600)” value [1] was “does not inhibit growth” and the “reduction of total cellular c-di-GMP content” value [2] was 90%. The “reduction of the fluorescence output of the c-di-GMP monitor cultures” value ([3]; 100 μM, compared with control cultures with 1% DMSO) was 80%, the inhibition at 100 µM ([3]; Pseudomonas aeruginosa, read-out: Reduction of total cellular c-di-GMP level) was 80% and the “fluorescent read-out of ΔbifA c-di-GMP monitor strain” value [4] was “completely unaffected”. The “biofilm formation of Escherichia coli” value (Escherichia coli) was “failed to reduce biofilm formation” and the “surviving cells of biofilms after antibiotic challenge” value (P. aeruginosa biofilms) was “substantial decrease of surviving cells”.
